Data from paper PMC5955599, “The HTLV-1 gp21 fusion peptide inhibits antigen specific T-cell activation in-vitro and in mice” (PLoS Pathogens, 2018).

Legend:
[1] = Circular dichroism spectroscopy with CDNN secondary structure analysis; assay type: physicochemical; details: 25μM peptide in 5mM HEPES buffer with 1% LPC
Procedure: Fig 6 Detection of the immune modulatory region within the HTLV FP. (A) Sequences of shorter peptides derived from the full length HTLV FP. (B) MOG35-55–antigen specific T-cells were activated by APCs in the presence of HTLV FP derived peptides at 10μM and proliferative responses were assessed as described above. […] The data is presented as mean inhibition of proliferation. n = 12. (C) MOG35-55–antigen specific T cells were activated by either (i) irradiated MOG35-55 presenting APCs (black), (ii) antibodies against CD3 and CD28 (white), or (iii) PMA and Ionomycin (gray) in the presence of HTLV FP5-13 and HIV FP5-13 at 10μM. Proliferative responses were assessed as described above. The HTLV FP inhibits T-cell proliferation induced either through the TCR or downstream from the TCR with equal potencies. The data is presented as mean inhibition of proliferation. n = 12. […] CD spectra were measured at 25μM in 5mM HEPES buffer containing 1% lyso-phosphatidylcholine (LPC). […] (E) MOG35-55–antigen specific T-cells were activated by APCs in the presence of HTLV FP5-13 D/L enantiomers at 10μM and proliferative responses were assessed as described above. Both HTLV FP5-13 enantiomers inhibit T-cells proliferation with equal potencies. The data is presented as mean inhibition of proliferation. n = 12. One-way ANOVA was used for statistical analysis. *P<0.05;**P<0.01;***P<0.001.

[2] = tested on: MOG35-55–antigen specific T-cells; assay: T-bet and Gata3 expression detected by FACS; assay type: cell-based, mouse (C57Bl/6J); details: peptide at 10μM, APC activation, n = 3
Procedure: (A-B) MOG35-55–antigen specific T-cells were activated by irradiated MOG35-55 presenting APCs, in the presence of the HTLV FP at 10μM. Total RNA was isolated 24 hours following activation and mRNA expression levels were determined by qRT-PCR. The values of each gene were normalized to Rpl13a as a housekeeping control. The HTLV FP reduces TBX21 (T-bet) mRNA expression and elevates GATA3 mRNA expression. The data is presented as arbitrary units. n≥3. (C-H) MOG35-55–antigen specific T-cells were activated by irradiated MOG35-55 presenting APCs, in the presence of either HTLV or HIV FP at 10μM. Samples were fixed in 4% PFA and stained with anti T-bet-APC and anti Gata3-FITC antibodies (C-D) 24, (E-F) 48 and (G-H) 72 hours following activation. Each time point is represented as cell count vs. APC or FITC fluorescence histogram. Analysis was performed using LSR-II flow cytometer (BD) and FlowJo cell analysis software (FlowJo, LLC). The HTLV FP reduces T-bet expression and elevates Gata3 expression. n = 3. One-way ANOVA was used for statistical analysis. ns, not significant; *P<0.05;** P<0.01.
Antigen-specific T-cells were plated onto round 12-well plates (10^6 cells/ well) and activated with 5x10^5 irradiated (25 gray) APC and 5μg/ml of MOG p35-55 in the presence or absence of relevant peptides. Cells were washed with PBS, blocked (5% Donkey serum, 2% BSA and 0.1% Triton in PBS) and fixed with 4% Paraformaldehyde (PFA) 24 hour following activation. Cells were then stained with Gata3-FITC and T-bet-APC fluorochrome-labeled monoclonal mouse antibodies (purchased from Miltenyi Biotec) according to Miltenyi Biotec protocols. Samples were then collected using LSR-II flow cytometer and analyzed with FlowJo cell analysis software.

[3] = tested on: human peripheral T lymphocytes; assay: Cytokine secretion from primary human peripheral T-cells (ELISA); assay type: cell-based; details: peptide at 10μM, CD3 and CD28 antibodies, media 48 hours following activation, n = 12
Procedure: Fig 4 Primary human T-cell activation is inhibited upon HTLV FP treatment. Human peripheral T lymphocytes were isolated from whole blood and activated using CD3 and CD28 antibodies, in the presence of HTLV FP or HTLV Scr at 10μM. Media was collected 48 hours following activation and secretion of IL2, IFN-γ and IL10 was measured by ELISA assay. […] One-way ANOVA was used for statistical analysis. *P<0.05; ***P<0.001; ns, not significant.
Human peripheral T lymphocytes were isolated from whole blood of healthy adult donors by dextran sedimentation and Ficoll (Sigma) gradient separation followed by depletion of B cells using nylon wool column (Unisorb), to which B cells were adsorbed. Cells were incubated in a complete RPMI growth medium (500 ml RPMI Ca/Mg + heat inactivated FCS (10% final) + 5 ml 200 mM L-Glu (2 mM final) +5 ml […] Na pyruvate (1 mM final) + 5 ml Pen Strep antibiotics) for more than 2 h, and then non-adherent cells were harvested and transferred to a new plate, resulting in ~90% CD3+ T lymphocytes. Cells were then used for in vitro assay, in which […] were plated per well in a 96-well plate and activated using CD3 and CD28 antibodies.
Human peripheral T lymphocytes were isolated from whole blood of healthy donors and were incubated in a complete RPMI growth medium (500 ml RPMI Ca/Mg + heat inactivated FCS (10% final) + 5 ml 200 mM L-Glu (2 mM final) +5 ml […] Na pyruvate (1 mM final) + 5 ml Pen Strep antibiotics). Cells were activated using CD3 and CD28 antibodies, in the presence of relevant peptides at 10μM. Media was collected 48 hours following activation and secretion of IL2 and IFN-γ was determined according to standard protocols from R&D systems.

[4] = CD 190–260 nm, CDNN, relative amount of structure out of 100%

AVPVAVWLVSALAMGAGVAGGITGSMSLASGKS [HTLV FP, gp21 fusion peptide of HTLV-1, MT-2 isolate]
Antiparallel β-Sheet [1, 4]: 2.1% | Parallel β-Sheet [1, 4]: 3.3% | Random-coil [1, 4]: 13% | α-Helix [1, 4]: 68.6% | β-turn [1, 4]: 13% | secondary structure in a membrane mimetic environment ([1]; CD): exhibited an α-helical structure | Gata3 expression (protein), 24 hours ([2]; 24 hours following activation): elevated Gata3 expression | T-bet expression (protein), 24 hours ([2]; 24 hours following activation): reduced T-bet expression | Gata3 expression (protein), 48 hours ([2]; 48 hours following activation): elevated Gata3 expression | T-bet expression (protein), 48 hours ([2]; 48 hours following activation): reduced T-bet expression | Gata3 expression (protein), 72 hours ([2]; 72 hours following activation): elevated Gata3 expression | T-bet expression (protein), 72 hours ([2]; 72 hours following activation): no difference was observed | IFN-γ secretion, human T-cells [3]: significant reduction in IFN-γ and IL2 secretion | IL2 secretion, human T-cells [3]: significant reduction in IFN-γ and IL2 secretion | IL10 secretion, human T-cells [3]: elevation in IL10 secretion
